Reference: patent publication US8586747B2, “3,3-dimethyl tetrahydroquinoline derivatives” (Hoffmann-La Roche Inc., priority 2010, dated 2013)

tested on: AMP-activated protein kinase (AMPK); assay: ADP Quest assay for AMPK activators; type: biochemical; parameters: key: fold AMPK activation with vs without activator at 30 µM; conditions: fold of AMPK activation to phosphorylate SAMS peptide without and with an activator at the concentration of 30 µM
How it was run: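 AMPK phosphorylation of SAMS peptide with ATP monitored kinetically at room temperature by ADP Quest fluorescence (ex 530/em 590 nm), reaction started with enzyme. Compounds tested […] in 2-fold dilutions, AMP as reference. E30 is fold activation at 30 µM activator versus none.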

Structure (SMILES) | E30
CC1(C)Cc2cc(C(=O)O)ccc2NC1c1ccccc1NS(=O)(=O)c1cccc(F)c1 (stereo not drawn) [Example 222, 2-(2-(3-Fluorophenylsulfonamido)phenyl)-3,3-dimethyl-1,2,3,4-tetrahydroquinoline-6-carboxylic acid] | 2.09
CC1(C)Cc2cc(C(=O)O)ccc2NC1c1ccccc1NS(C)(=O)=O (stereo not drawn) [Example 223, 3,3-Dimethyl-2-(2-(methylsulfonamido)phenyl)-1,2,3,4-tetrahydroquinoline-6-carboxylic acid] | 1.94
CN1CCC(NC(=O)c2cccc(C3Nc4c(cccc4C(=O)O)CC3(C)C)c2)C1 (stereo not drawn) [Example 224, 3,3-Dimethyl-2-(3-(1-methylpyrrolidin-3-ylcarbamoyl)phenyl)-1,2,3,4-tetrahydroquinoline-8-carboxylic acid] | 1.43
CC1(C)Cc2cc(C(=O)O)ccc2NC1c1cccc(S(=O)(=O)N2CCCC2)c1 (stereo not drawn) [Example 227, 3,3-Dimethyl-2-(3-(pyrrolidin-1-ylsulfonyl)phenyl)-1,2,3,4-tetrahydroquinoline-6-carboxylic acid] | 1.2
CNS(=O)(=O)c1cccc(C2Nc3ccc(C(=O)O)cc3CC2(C)C)c1 (stereo not drawn) [Example 228, 3,3-Dimethyl-2-(3-(N-methylsulfamoyl)phenyl)-1,2,3,4-tetrahydroquinoline-6-carboxylic acid] | 1.38
CC1(C)Cc2cc(C(=O)O)ccc2NC1c1cccc(S(=O)(=O)Nc2ccccc2)c1 (stereo not drawn) [Example 230, 3,3-Dimethyl-2-(3-(N-phenylsulfamoyl)phenyl)-1,2,3,4-tetrahydroquinoline-6-carboxylic acid] | 1.27
CC1(C)Cc2cc(C(=O)O)ccc2NC1c1ccccc1NC(=O)c1ccccn1 (stereo not drawn) [Example 232, 3,3-Dimethyl-2-(2-(picolinamido)phenyl)-1,2,3,4-tetrahydroquinoline-6-carboxylic acid] | 1.28
CC(C)(Oc1cccc(C2Nc3ccc(C(=O)O)cc3CC2(C)C)c1)C(=O)O (stereo not drawn) [Example 233, 2-(3-(2-Carboxypropan-2-yloxy)phenyl)-3,3-dimethyl-1,2,3,4-tetrahydroquinoline-6-carboxylic acid] | 1.29

The remaining lines, values ahead:

E30 | Structure (SMILES)
1.64 | CN1CCC(NC(=O)c2cccc(C3Nc4ccc(Cl)cc4CC3(C)C)c2)C1 (stereo not drawn) [Example 225, 3-(6-Chloro-3,3-dimethyl-1,2,3,4-tetrahydroquinolin-2-yl)-N-(1-methylpyrrolidin-3-yl)benzamide]
1.32 | CNS(=O)(=O)c1ccc(C2Nc3ccc(C(=O)O)cc3CC2(C)C)cc1 (stereo not drawn) [Example 226, 3,3-Dimethyl-2-(4-(N-methylsulfamoyl)phenyl)-1,2,3,4-tetrahydroquinoline-6-carboxylic acid]
1.33 | CN1CCC(NS(=O)(=O)c2cccc(C3Nc4ccc(C(=O)O)cc4CC3(C)C)c2)C1 (stereo not drawn) [Example 229, 3,3-Dimethyl-2-(3-(N-(1-methylpyrrolidin-3-yl)sulfamoyl)phenyl)-1,2,3,4-tetrahydroquinoline-6-carboxylic acid]
1.31 | CN(C)S(=O)(=O)c1cccc(C2Nc3ccc(C(=O)O)cc3CC2(C)C)c1 (stereo not drawn) [Example 231, 2-(3-(N,N-dimethylsulfamoyl)phenyl)-3,3-dimethyl-1,2,3,4-tetrahydroquinoline-6-carboxylic acid]
